Laboratory results published in patent US9574182B2, “Monoterpene glycosyltransferase originating from hop and method for using same” (SUNTORY HOLDINGS LIMITED, priority 2012, dated 2017).

B1: HlUGT251: Humulus lupulus monoterpene glycosyltransferase, amino acid sequence SEQ ID NO: 8, expressed as HisTag fusion in E. coli (protein, listed as Humulus lupulus)
chain: MGSISEMMKPHAVCVPFPAQGHVNPMMQLAKLLHSRGFHITYVNTEFNHRRLIRSRGPDSVKGLPDFQFETIPDGLPPSDRDATQEVPPLCDATRKNCLGPFKELLHKLRSCSEVPPVTCIITDGIMTFGIKAAREFGIPEVVFWTASACSFMGYLQYDELVRRGIVPFKDESFMLDGTLDTPIDWIPGIRDVRLRDLPSFLRVTSTDDIMFDFLGSQAKNCLTSSAIIFNTFRELELEVLDSISDMYPNIYTIGPLPMLNRHLPAESQVKSMSTSLWKEDSTCFQWLHKREPNSVVYVNYGSITTMTEDNFREFAWGLANSKHSFVWIVRPDVIMGSNSATVLPEEFFEEIKDRGLLANWCQQKEVLEHSSVGVFLTHCGWNSTVETVCAGVPVICWPFFADQQTNCHFACKTLGIGVEISPDVKREEVTGLVKEMMEGEKGEKMREKASYWKKKAAETTDIGGDSYHDFDKLIKSLGFDGRD
modifications: His tag

What was measured:
Format in all cases: biochemical, Humulus lupulus
HlUGT279 = experiment: Monoterpene glycosylation by recombinant HlUGT279 (UDP-glucose, LC-MS); conditions: 2 mM UDP-glucose, 0.2 mM sugar acceptor substrate, pH 7.5, 30° C., 1 hour
Protocol: (§1) Next, these proteins were used to test their reactivity with monoterpenes by LC-MS analysis. Standard enzyme reaction conditions are as follows. A reaction solution (2 mM UDP-glucose, 0.2 mM sugar acceptor substrate, 100 mM potassium phosphate buffer (pH 7.5), 25 μl purified […] enzyme solution) was prepared in a volume of 50 μl with distilled water and reacted at 30° C. for 1 hour. The enzyme reaction solution (5 μl) was analyzed by LC-MS under the following conditions. LC Conditions Column: CAPCELL PAK C18-UG120 (2.0 mm I.D.×150 mm) Mobile phase: A: water (containing 0.05% formic acid), B: acetonitrile Gradient: linear concentration gradient of B from 15% to 90% over 15 minutes Flow rate: 0.2 ml per minute Column oven: 40° C. MS Conditions ESI (negative mode) SIM mode: (m/z 315, 338, 361, 363, 331, 354, 377, 429, etc.) The above LC-MS analysis was conducted for each of HlUGT119, HlUGT127, HlUGT279 and HlUGT251.

HlUGT119 = experiment: Monoterpene glycosylation by recombinant HlUGT119 (UDP-glucose, LC-MS); conditions: 2 mM UDP-glucose, 0.2 mM sugar acceptor substrate, pH 7.5, 30° C., 1 hour
Protocol: as §1

HlUGT251 = experiment: Monoterpene glycosylation by recombinant HlUGT251 (UDP-glucose, LC-MS); conditions: for monoglycosylation activity of HlUGT251 on the monoterpene: 2 mM UDP-glucose, 0.2 mM sugar acceptor substrate, pH 7.5, 30° C., 1 hour, LC-MS
Protocol: as §1

HlUGT127 = experiment: Monoterpene glycosylation by recombinant HlUGT127 (UDP-glucose, LC-MS); conditions: 2 mM UDP-glucose, 0.2 mM sugar acceptor substrate, pH 7.5, 30° C., 1 hour
Protocol: as §1

Row | Molecule | monoglycosylation activity of HlUGT279 on the monoterpene (HlUGT279) | monoglycosylation activity of HlUGT119 on the monoterpene (HlUGT119) | monoglycosylation activity of HlUGT251 on the monoterpene (HlUGT251) | monoglycosylation activity of HlUGT127 on the monoterpene (HlUGT127) | amount of product compared with the other three enzymes (HlUGT251; same reaction conditions, ascribed to extremely lower amount of expressed protein)
1 | CC(C)=CCC/C(C)=C/CO [geraniol, Geraniol] | monoglycosylation activity | monoglycosylation activity | monoglycosylation activity | monoglycosylation activity | –
2 | C=CC(C)(O)CCC=C(C)C (stereo not drawn) [linalool, Linalool] | monoglycosylation activity | monoglycosylation activity | monoglycosylation activity | monoglycosylation activity | –
3 | B1 | – | – | – | – | smaller amount of product
